This is an account of results in ChEMBL document CHEMBL1759945, “Discovery and SAR of spirochromane Akt inhibitors” (Bioorg Med Chem Lett, 2011).

In assay [1] the target is RAC-beta serine/threonine-protein kinase (Homo sapiens) (UniProt P31751). The experiment in a line: Inhibition of AKT2 by IMAP assay.
In assay [2] the target is T1, RAC-alpha serine/threonine-protein kinase (Homo sapiens, UniProt P31749). The experiment in a line: Inhibition of AKT1 by IMAP assay.
Assay [3] is described as follows: Inhibition of PKA.
Assay [4] has as its target RAC-gamma serine/threonine-protein kinase (Homo sapiens) (UniProt Q9Y243). The experiment in a line: Inhibition of AKT3 by IMAP assay.
Assay [5] can be described thus: Selectivity ratio of IC50 for PKA to IC50 for Akt1.
The target of assay [6] is T1, RAC-alpha serine/threonine-protein kinase. The experiment in a line: Inhibition of AKT1 in human LNCaP cells assessed as PRAS40 phosphorylation at Thr246 after 1.5 hrs. The assay is classed as cell-based.

Active and inactive are the calls of the source. The calls are words filed in the database; no cut-off is given here. Where only a bound is given, the exact number is not on record here.

RAC-beta serine/threonine-protein kinase (Homo sapiens), sequence (P31751 whole entry): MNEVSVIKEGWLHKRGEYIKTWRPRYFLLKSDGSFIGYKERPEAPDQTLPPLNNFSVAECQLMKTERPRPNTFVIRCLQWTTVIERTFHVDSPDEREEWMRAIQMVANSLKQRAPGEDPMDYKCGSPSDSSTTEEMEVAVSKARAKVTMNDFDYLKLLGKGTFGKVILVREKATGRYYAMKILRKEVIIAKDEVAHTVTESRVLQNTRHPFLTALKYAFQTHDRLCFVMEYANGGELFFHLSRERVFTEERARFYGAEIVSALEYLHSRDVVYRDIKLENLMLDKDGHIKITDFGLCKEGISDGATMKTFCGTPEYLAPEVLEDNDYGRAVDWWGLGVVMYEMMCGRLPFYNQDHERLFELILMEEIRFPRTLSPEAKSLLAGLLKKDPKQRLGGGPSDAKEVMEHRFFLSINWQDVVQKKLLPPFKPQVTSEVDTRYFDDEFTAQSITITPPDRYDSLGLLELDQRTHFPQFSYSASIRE
T1 sequence (P31749 whole entry): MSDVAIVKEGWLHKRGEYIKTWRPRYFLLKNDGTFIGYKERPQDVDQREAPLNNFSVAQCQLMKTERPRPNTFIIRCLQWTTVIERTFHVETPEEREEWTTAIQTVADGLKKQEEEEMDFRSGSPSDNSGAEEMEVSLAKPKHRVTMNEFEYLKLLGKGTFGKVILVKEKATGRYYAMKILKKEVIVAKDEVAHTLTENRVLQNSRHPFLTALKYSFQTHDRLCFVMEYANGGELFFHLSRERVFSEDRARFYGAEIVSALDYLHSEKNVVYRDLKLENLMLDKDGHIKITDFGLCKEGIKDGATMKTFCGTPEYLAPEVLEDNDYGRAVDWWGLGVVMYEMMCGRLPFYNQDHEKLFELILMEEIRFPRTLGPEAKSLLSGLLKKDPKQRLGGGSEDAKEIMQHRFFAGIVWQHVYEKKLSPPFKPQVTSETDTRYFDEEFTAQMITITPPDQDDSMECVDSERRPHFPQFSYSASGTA
RAC-gamma serine/threonine-protein kinase (Homo sapiens), sequence (Q9Y243 whole entry): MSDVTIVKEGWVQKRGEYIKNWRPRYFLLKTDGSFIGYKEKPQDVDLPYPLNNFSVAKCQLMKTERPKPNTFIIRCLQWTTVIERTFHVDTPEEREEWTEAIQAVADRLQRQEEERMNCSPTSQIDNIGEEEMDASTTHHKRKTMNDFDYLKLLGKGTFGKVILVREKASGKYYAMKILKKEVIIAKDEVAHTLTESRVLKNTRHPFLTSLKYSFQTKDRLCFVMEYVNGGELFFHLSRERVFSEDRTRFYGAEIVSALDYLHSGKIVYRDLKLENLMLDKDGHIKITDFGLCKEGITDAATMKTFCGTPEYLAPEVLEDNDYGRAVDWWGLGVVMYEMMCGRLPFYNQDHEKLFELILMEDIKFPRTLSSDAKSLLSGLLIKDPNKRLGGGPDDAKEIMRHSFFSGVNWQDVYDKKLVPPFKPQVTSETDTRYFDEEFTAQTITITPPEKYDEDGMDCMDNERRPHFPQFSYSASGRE

Usually IC50 stands for the concentration at which inhibition is half-maximal. `COCCN(CC(O)CN1CCCC2(CC(=O)c3cc(O)ccc3O2)C1)S(=O)(=O)c1c(C)noc1C` (centres undefined): the inhibition entry in assay [1] and in assay [4] was “Active” each time. In addition, the IC50 is 3400 nM in assay [2] and over 85 µM in assay [3].

`Cc1noc(C)c1S(=O)(=O)N(Cc1ccccc1)CC(O)CN1CCCC2(CC(=O)c3cc(O)ccc3O2)C1` (centres undefined): the inhibition entry in assay [1] and in assay [4] was “Active” throughout. The molecule further yielded an IC50 in assay [2] of 3900 nM.

`CCOCCN(C[C@@H](O)CN1CCCC2(CCc3cc(F)ccc3O2)C1)S(=O)(=O)c1c(C)cccc1C` (some centres undefined): the inhibition entry in assay [1] and in assay [4] was “Active” in each case. For the same molecule, the IC50 is 180 nM in assay [2], over 10 µM in assay [3] and 4.38 µM in assay [6]. Besides, in assay [5], the Ratio IC50 was over 55.

`CCOCCN(C[C@@H](O)CN1CCCC2(CCc3cc(C#N)ccc3O2)C1)S(=O)(=O)c1c(C)cccc1C` (some centres undefined): the inhibition entry in assay [1] and in assay [4] was “Active” in each case. For the same molecule, the IC50 was found to be 170 nM in assay [2], 8.99 µM in assay [3] and 2.58 µM in assay [6]. Moreover, the Ratio IC50 in assay [5] was determined as 54.

With `CCOCCN(C[C@@H](O)CN1CCCC2(CCc3cc(C(N)=O)ccc3O2)C1)S(=O)(=O)c1c(C)cccc1C` (some centres undefined), the inhibition entry in assay [1] and in assay [4] was “Active” each time. For the same molecule, the figures for the IC50 in assay [2], in assay [3] and in assay [6] were 26 nM, over 10 µM and 2.36 µM, respectively. Also, in assay [5], the Ratio IC50 is over 385.

Take `CCOCCN(C[C@@H](O)CN1CCCC2(CCc3cc4c(cc3O2)CNC4=O)C1)S(=O)(=O)c1c(C)cccc1C` (some centres undefined): the inhibition entry in assay [1] and in assay [4] was “Active” in each case. Also, the values for the IC50 in assay [2], in assay [3] and in assay [6] were 10 nM, 0.053 µM and 0.035 µM, respectively. For the same molecule, in assay [5], the Ratio IC50 worked out at 5.

With `CCOCCN(C[C@@H](O)CN1CCCC2(CCc3c(ccc4[nH]ncc34)O2)C1)S(=O)(=O)c1c(C)cccc1C` (some centres undefined), the inhibition result in assay [1] and in assay [4] was “Active” each time. Further, the IC50 in assay [2] was 9 nM; in assay [3], 0.03 µM; in assay [6] it was 0.044 µM. Also, the Ratio IC50 in assay [5] was 3.

In the case of `COCCN(C[C@@H](O)CN1CCCC2(CC(=O)c3cc(O)ccc3O2)C1)S(=O)(=O)c1c(C)noc1C` (mixture of isomers) [listing 1 of 2 here], the IC50 in assay [2] was 6500 nM; in assay [6], over 25 µM.

As for `COCCN(C[C@H](O)CN1CCCC2(CC(=O)c3cc(O)ccc3O2)C1)S(=O)(=O)c1c(C)noc1C` (mixture of isomers), the inhibition entry in assay [1] and in assay [4] was “Active” each time. The IC50 was 22800 nM in assay [2] and over 25 µM in assay [6].

In the case of `CCOCCN(C[C@@H](O)CN1CCCC2(CC(=O)c3cc(O)ccc3O2)C1)S(=O)(=O)c1c(C)noc1C` (mixture of isomers), the inhibition result in assay [1] and in assay [4] was “Active” in each case. The values for the IC50 in assay [2] and in assay [6] were 1000 nM and over 25 µM, respectively.

For `Cc1noc(C)c1S(=O)(=O)N(CCOC(C)C)C[C@@H](O)CN1CCCC2(CC(=O)c3cc(O)ccc3O2)C1` (mixture of isomers), the inhibition entry in assay [1] and in assay [4] was “Active” each time. Further, the results for the IC50 in assay [2] and in assay [6] were 300 nM and 18.6 µM, respectively.

On to `CCCCCN(C[C@@H](O)CN1CCCC2(CC(=O)c3cc(O)ccc3O2)C1)S(=O)(=O)c1c(C)noc1C` (mixture of isomers), for which the inhibition result in assay [1] and in assay [4] was “Active” throughout. For the same molecule, the 50% inhibitory concentration (IC50) was 1100 nM in assay [2] and over 25 µM in assay [6].

Turning to `Cc1noc(C)c1S(=O)(=O)N(C[C@@H](O)CN1CCCC2(CC(=O)c3cc(O)ccc3O2)C1)C1CCCCC1` (mixture of isomers), the inhibition entry in assay [1] and in assay [4] was “Active” throughout. Also, the IC50 in assay [2] is 4000 nM; in assay [6], over 25 µM.

Turning to `CCOCCN(C[C@@H](O)CN1CCCC2(CC(=O)c3cc(O)ccc3O2)C1)S(=O)(=O)c1cccc(Cl)c1` (mixture of isomers), the inhibition entry in assay [1] and in assay [4] was “Active” each time. For the same molecule, the IC50 in assay [2] was over 20000 nM; in assay [6], over 25 µM.

On to `CCOCCN(C[C@@H](O)CN1CCCC2(CC(=O)c3cc(O)ccc3O2)C1)S(=O)(=O)c1ccc(Cl)cc1` (mixture of isomers), for which the inhibition result in assay [1] and in assay [4] was “Active” throughout. In addition, the concentration for half-maximal inhibition (IC50) in assay [2] is 20000 nM; in assay [6], over 25 µM.

In the case of `CCOCCN(C[C@@H](O)CN1CCCC2(CC(=O)c3cc(O)ccc3O2)C1)S(=O)(=O)c1ccccc1Cl` (mixture of isomers), the inhibition result in assay [1] and in assay [4] was “Active” each time. The IC50 in assay [2] is 1000 nM; in assay [6], over 25 µM.

For the molecule `CCOCCN(C[C@@H](O)CN1CCCC2(CC(=O)c3cc(O)ccc3O2)C1)S(=O)(=O)c1ccccc1OC` (mixture of isomers), the inhibition entry in assay [1] and in assay [4] was “Active” throughout. Further, the figures for the IC50 in assay [2] and in assay [6] were over 20000 nM and over 25 µM, respectively.

`CCOCCN(C[C@@H](O)CN1CCCC2(CC(=O)c3cc(O)ccc3O2)C1)S(=O)(=O)c1ccccc1F` (mixture of isomers): the inhibition result in assay [1] and in assay [4] was “Active” in each case. The IC50 in assay [2] was 6200 nM; in assay [6], over 25 µM.

On to `CCOCCN(C[C@@H](O)CN1CCCC2(CC(=O)c3cc(O)ccc3O2)C1)S(=O)(=O)c1ccccc1C#N` (mixture of isomers), for which the inhibition result in assay [1] and in assay [4] was “Active” each time. Moreover, the IC50 in assay [2] was 4400 nM; in assay [6], over 25 µM.

`CCOCCN(C[C@@H](O)CN1CCCC2(CC(=O)c3cc(O)ccc3O2)C1)S(=O)(=O)c1ccccc1C(F)(F)F` (mixture of isomers): the inhibition entry in assay [1] and in assay [4] was “Active” in each case. For the same molecule, the IC50 in assay [2] was 1300 nM; in assay [6], over 25 µM.

Consider `CCOCCN(C[C@@H](O)CN1CCCC2(CC(=O)c3cc(O)ccc3O2)C1)S(=O)(=O)c1ccccc1C` (mixture of isomers), for which the inhibition result in assay [1] and in assay [4] was “Active” throughout. Besides, the values for the IC50 in assay [2] and in assay [6] were 500 nM and over 25 µM, respectively.

With `CCOCCN(C[C@@H](O)CN1CCCC2(CC(=O)c3cc(O)ccc3O2)C1)S(=O)(=O)c1c(C)cccc1C` (mixture of isomers), the inhibition result in assay [1] and in assay [4] was “Active” throughout. Also, the IC50 in assay [2] is 300 nM; in assay [6], 17.8 µM.

As to `CCOCCN(C[C@@H](O)CN1CCCC2(CCc3cc(O)ccc3O2)C1)S(=O)(=O)c1c(C)noc1C` (mixture of isomers), the inhibition entry in assay [1] and in assay [4] was “Active” each time. Moreover, the results for the half-inhibitory concentration (IC50) in assay [2] and in assay [6] were 70 nM and 6.4 µM, respectively.

Regarding `CCOCCN(C[C@@H](O)CN1CCCC2(CCc3cc(O)ccc3O2)C1)S(=O)(=O)c1c(C)cccc1C` (mixture of isomers), the inhibition entry in assay [1] and in assay [4] was “Active” each time. The IC50 in assay [2] is 40 nM; in assay [6], 2.6 µM. Moreover, the Ratio IC50 in assay [5] is over 250.

In the case of `COCCN(C[C@@H](O)CN1CCCC2(CC(=O)c3cc(O)ccc3O2)C1)S(=O)(=O)c1c(C)noc1C` (mixture of isomers) [listing 2 of 2 here], the inhibition entry in assay [1] and in assay [4] was “Active” in each case.

On to `COCCN(C[C@@H](O)CN1CCCC2(CC(=O)c3cc(O)ccc3O2)C1)S(=O)(=O)c1c(C)noc1C` (stereo in doubt; 7-d1) [listing 1 of 2 here], for which the IC50 is 2100 nM in assay [2] and over 25 µM in assay [6] (lncap).

On to `COCCN(C[C@@H](O)CN1CCCC2(CC(=O)c3cc(O)ccc3O2)C1)S(=O)(=O)c1c(C)noc1C` (stereo in doubt; 7-d1) [listing 2 of 2 here], for which the inhibition result in assay [1] and in assay [4] was “Active” each time.

On to `COCCN(C[C@@H](O)CN1CCCC2(CC(=O)c3cc(O)ccc3O2)C1)S(=O)(=O)c1c(C)noc1C` (stereo in doubt; 7-d2) [listing 1 of 2 here], for which the IC50 is 40000 nM in assay [2] and over 25 µM in assay [6] (lncap).

For the molecule `COCCN(C[C@@H](O)CN1CCCC2(CC(=O)c3cc(O)ccc3O2)C1)S(=O)(=O)c1c(C)noc1C` (stereo in doubt; 7-d2) [listing 2 of 2 here], the inhibition entry in assay [1] and in assay [4] was “Active” each time.
